Assay results as given in ChEMBL document CHEMBL5257095, “Synthesis and biological evaluation of novel pteridin-7(8H)-one derivatives as potent CDK2 inhibitors” (Bioorg Med Chem Lett, 2023).

Tests used:
HCT-116 = test: Antiproliferative activity against human HCT-116 cells assessed as inhibition of cell proliferation; format: functional, cell-based
[1] = target: Cyclin-dependent kinase 2/cyclin E (Homo sapiens) (UniProt P24864+P24941+O96020); test: Inhibition of CDK2/Cyclin E (unknown origin) at 500 nM; format: protein-complex assay
MV4-11 = test: Antiproliferative activity against human MV4-11 cells assessed as inhibition of cell proliferation; format: functional, cell-based
[2] = target: Cyclin-dependent kinase 2/cyclin E (Homo sapiens, UniProt P24941); test: Inhibition of CDK2/Cyclin E (unknown origin); format: protein-complex assay
[3] = target: Cyclin-dependent kinase 4/cyclin D1 (Homo sapiens, UniProt P11802); test: Inhibition of CDK4/Cyclin D1 (unknown origin); format: protein-complex assay
Homo sapiens [4] = species: Homo sapiens; test: Selectivity ratio of IC50 for inhibition of CDK6/Cyclin D3 (unknown origin) to IC50 for inhibition of CDK2/Cyclin E (unknown origin)
Homo sapiens [5] = species: Homo sapiens; test: Selectivity ratio of IC50 for inhibition of CDK4/Cyclin D1 (unknown origin) to IC50 for inhibition of CDK2/Cyclin E (unknown origin)
CDK6/cyclin D3 = CDK6/cyclin D3 (Homo sapiens, UniProt Q00534); test: Inhibition of CDK6/Cyclin D3 (unknown origin); format: protein-complex assay
CDK6/cyclin D3, sequence (P30281 whole entry): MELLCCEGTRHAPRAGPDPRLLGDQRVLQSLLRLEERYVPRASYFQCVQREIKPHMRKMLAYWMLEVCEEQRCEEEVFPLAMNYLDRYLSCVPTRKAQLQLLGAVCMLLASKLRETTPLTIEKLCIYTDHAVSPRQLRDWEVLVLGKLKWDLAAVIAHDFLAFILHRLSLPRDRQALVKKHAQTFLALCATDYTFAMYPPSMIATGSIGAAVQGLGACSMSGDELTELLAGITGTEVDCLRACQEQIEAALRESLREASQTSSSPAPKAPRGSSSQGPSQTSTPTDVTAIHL
CDK6/cyclin D3, sequence (Q00534 whole entry): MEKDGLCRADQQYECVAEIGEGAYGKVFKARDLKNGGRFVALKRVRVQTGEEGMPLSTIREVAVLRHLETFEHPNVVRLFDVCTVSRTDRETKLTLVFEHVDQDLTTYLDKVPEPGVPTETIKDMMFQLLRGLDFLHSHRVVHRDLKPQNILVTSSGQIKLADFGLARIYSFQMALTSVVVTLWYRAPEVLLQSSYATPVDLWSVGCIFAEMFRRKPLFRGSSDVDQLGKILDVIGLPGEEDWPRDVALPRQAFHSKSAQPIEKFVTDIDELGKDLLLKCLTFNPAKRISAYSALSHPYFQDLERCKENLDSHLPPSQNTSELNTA

Cyclin-dependent kinase 4/cyclin D1, sequence (P11802 whole entry): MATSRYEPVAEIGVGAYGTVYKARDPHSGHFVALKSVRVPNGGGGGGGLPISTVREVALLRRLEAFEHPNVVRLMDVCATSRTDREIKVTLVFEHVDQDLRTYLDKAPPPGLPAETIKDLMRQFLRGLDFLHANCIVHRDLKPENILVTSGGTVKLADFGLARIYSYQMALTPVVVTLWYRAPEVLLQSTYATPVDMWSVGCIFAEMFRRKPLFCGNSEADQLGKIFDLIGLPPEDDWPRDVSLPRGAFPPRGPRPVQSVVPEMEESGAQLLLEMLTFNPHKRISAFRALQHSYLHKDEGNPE
Cyclin-dependent kinase 4/cyclin D1, sequence (P24385 whole entry, further chain): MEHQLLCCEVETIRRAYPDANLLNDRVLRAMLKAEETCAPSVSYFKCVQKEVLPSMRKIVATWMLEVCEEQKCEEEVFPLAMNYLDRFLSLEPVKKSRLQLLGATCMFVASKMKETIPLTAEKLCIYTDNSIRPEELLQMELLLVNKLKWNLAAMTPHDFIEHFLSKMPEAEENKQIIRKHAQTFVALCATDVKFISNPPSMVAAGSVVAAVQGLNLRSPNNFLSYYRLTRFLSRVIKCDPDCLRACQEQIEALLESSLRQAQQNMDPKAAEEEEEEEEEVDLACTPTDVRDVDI

## C[C@@]1(O)CCC[C@H]1n1c(=O)c(C(F)F)cc2cnc(NC3CCN(S(C)(=O)=O)CC3)nc21 [EBVACICLIB]
HCT-116
  IC50: 0.22 µM
[1]
  inhibition: 98.8%
MV4-11
  IC50: 0.57 µM

## CCC(C)n1c(=O)c(OC)nc2cnc(NC3CCN(S(C)(=O)=O)CC3)nc21 (stereo not given)
[2]
  IC50: 500 nM
HCT-116
  IC50: 6.34 µM
[1]
  inhibition: 70.2%
MV4-11
  IC50: 7.81 µM

## CCC(CC)n1c(=O)c(OC)nc2cnc(NC3CCN(S(C)(=O)=O)CC3)nc21
[2]
  IC50: 350 nM
HCT-116
  IC50: 5.5 µM
[1]
  inhibition: 79.6%
MV4-11
  IC50: 4.88 µM

## CCS(=O)(=O)N1CCC(Nc2ncc3nc(NC)c(=O)n(C4CCCC4)c3n2)CC1
[1]
  inhibition: 45.4%

## CS(=O)(=O)N1CCC(Nc2ncc3nc(O)c(=O)n([C@@H]4CCC[C@H]4O)c3n2)CC1
[1]
  inhibition: 43%

## CCNc1ncc2nc(NC3CCN(S(=O)(=O)N(C)C)CC3)c(=O)n(C3CCCC3)c2n1
[1]
  inhibition: 43.2%

## CS(=O)(=O)N1CCC(Nc2nc3cnc(NN)nc3n(C3CCCC3)c2=O)CC1
[1]
  inhibition: 26.8%

## CCC(C)n1c(=O)c(O)nc2cnc(NC3CCN(S(C)(=O)=O)CC3)nc21 (stereo not given)
[1]
  inhibition: 23.4%

## CCNc1nc2cnc(NC3CCN(S(C)(=O)=O)CC3)nc2n(C2CCCC2)c1=O
[1]
  inhibition: 20.3%

## CCNc1ncc2nc(NC3CCN(S(C)(=O)=O)CC3)c(=O)n(C3CCCC3)c2n1
[1]
  inhibition: 34.4%

## CNc1nc2cnc(NC3CCN(S(=O)(=O)C4CC4)CC3)nc2n(C2CCCC2)c1=O
[1]
  inhibition: 9.2%

## CS(=O)(=O)c1ccc(Nc2ncc3nc(O)c(=O)n(C4CCCC4)c3n2)cc1
[1]
  inhibition: 30%

## CN(C)S(=O)(=O)N1CCC(Nc2nc3cnc(NN)nc3n(C3CCCC3)c2=O)CC1
[1]
  inhibition: 27.1%

## CCC(CC)n1c(=O)c(O)nc2cnc(NC3CCN(S(C)(=O)=O)CC3)nc21
[1]
  inhibition: 39.2%

## CS(=O)(=O)N1CCC(Nc2ncc3nc(NCC(F)F)c(=O)n(C4CCCC4)c3n2)CC1
[1]
  inhibition: 51.2%

## COc1nc2cnc(NC3CCN(S(C)(=O)=O)CC3)nc2n(C2CCOCC2)c1=O
[2]
  IC50: 1700 nM
HCT-116
  IC50: 5.01 µM
[1]
  inhibition: 45.8%
MV4-11
  IC50: 4.26 µM

## CN1CCN(c2ccc(Nc3ncc4nc(O)c(=O)n(C5CCCC5)c4n3)cc2)CC1
[2]
  IC50: 1600 nM
HCT-116
  IC50: 6.23 µM
[1]
  inhibition: 48.3%
MV4-11
  IC50: 4.92 µM

## CNc1nc2cnc(NC3CCN(S(C)(=O)=O)CC3)nc2n(C2CCCC2)c1=O
[1]
  inhibition: 46.2%

## CS(=O)(=O)N1CCC(Nc2ncc3nc(O)c(=O)n(C4CCNC4)c3n2)CC1 (stereo not given)
[1]
  inhibition: 4.1%

## CS(=O)(=O)N1CCC(Nc2nc3cnc(NCC(F)F)nc3n(C3CCCC3)c2=O)CC1
[1]
  inhibition: 35.1%

## CS(=O)(=O)c1ccc(Nc2ncc3c(n2)n(C2CCCC2)c(=O)c2nncn23)cc1
[1]
  inhibition: 1.7%

## CCS(=O)(=O)N1CCC(Nc2ncc3nc(O)c(=O)n(C4CCCC4)c3n2)CC1
[2]
  IC50: 1040 nM
HCT-116
  IC50: 9.32 µM
[1]
  inhibition: 65.4%
MV4-11
  IC50: 9.15 µM

## COc1nc2cnc(NC3CCN(S(C)(=O)=O)CC3)nc2n(C2CCCC2)c1=O
[2]
  IC50: 160 nM
HCT-116
  IC50: 1.93 µM
[1]
  inhibition: 82.4%
MV4-11
  IC50: 2.57 µM

## CS(=O)(=O)N1CCC(Nc2ncc3nc(O)c(=O)n(C4CCCC4)c3n2)CC1
[2]
  IC50: 1220 nM
HCT-116
  IC50: 10.6 µM
[1]
  inhibition: 62.2%
MV4-11
  IC50: 13.9 µM

## O=c1c(O)nc2cnc(NC3CCN(S(=O)(=O)C4CC4)CC3)nc2n1C1CCCC1
[1]
  inhibition: 20.1%

## CS(=O)(=O)c1ccc(Nc2ncc3nc(NN)c(=O)n(C4CCCC4)c3n2)cc1
[2]
  IC50: 920 nM
HCT-116
  IC50: 3.43 µM
[1]
  inhibition: 67.3%
MV4-11
  IC50: 1.17 µM

## CN(C)S(=O)(=O)N1CCC(Nc2ncc3nc(O)c(=O)n(C4CCCC4)c3n2)CC1
[1]
  inhibition: 15.8%

## CN(C)S(=O)(=O)N1CCC(Nc2nc3cnc(NCC(F)F)nc3n(C3CCCC3)c2=O)CC1
[1]
  inhibition: 38.2%

## COc1nc2cnc(NC3CCN(S(=O)(=O)N(C)C)CC3)nc2n(C2CCCC2)c1=O
[1]
  inhibition: 36.1%

## CS(=O)(=O)N1CCC(Nc2ncc3nc(O)c(=O)n(C4CCOCC4)c3n2)CC1
[1]
  inhibition: 9.3%

## CS(=O)(=O)N1CCC(Nc2ncc3c(n2)n(C2CCCC2)c(=O)c2nncn23)CC1
[1]
  inhibition: 14.2%

## CS(=O)(=O)N1CCC(Nc2ncc3nc(NN)c(=O)n(C4CCCC4)c3n2)CC1
[2]
  IC50: 130 nM
[3]
  IC50: 340 nM
Homo sapiens [4]
  Ratio IC50: 4
Homo sapiens [5]
  Ratio IC50: 3
HCT-116
  IC50: 1.62 µM
[1]
  inhibition: 85.6%
MV4-11
  IC50: 1.95 µM
CDK6/cyclin D3
  IC50: 460 nM
